≈ marks a conversion by molar mass, not a printed value. Where two headings read alike, the source gives them in different places. Peptide text beside a SMILES is read from it.
Assays:
[1] = tested on: G(−) bacteria (five species); assay: MIC growth inhibition assay, average over G(−) species; format: cell-based; details: average of the average MICs of five G(−) species, ± spread
Protocol: (§1) Bacterial clinical isolates used for initial screening were anonymously provided by the clinical microbiology laboratory of the University of Pittsburgh Medical Center (UPMC). Bacteria were stored at −80 °C and typically retrieved by obtaining single colonies on agar plates prior to subsequent liquid broth culture. Suspensions of test bacteria were prepared from the log phase of growth by diluting overnight cultures at 1:100 with fresh cation-adjusted Mueller–Hinton Broth (MHB2) and incubating for an additional 3–4 h. Bacteria were spun at 3000 g for 10 min. The pellet was resuspended in Test Condition Media to determine bacterial turbidity using a Den-1B densitometer (Grant Instruments, Beaver Falls, PA) at 0.5 McFarland units corresponding to 10^8 CFU/mL.
(§2) To examine antibacterial activity, we used minor modifications of a standard growth inhibition assay endorsed by the Clinical and Laboratory Standards Institute (CLSI), as previously described.[13] Bacteria were incubated with each of the indicated peptides in MHB2. The bacterial cells were kept in an incubator for 18 h at 37 °C, which is linked to a robotic system that feeds a plate reader every hour with one of 8 × 96-well plates. The 96-well plates are standard flat-bottom microliter plates purchased from Thermo Fisher (Waltham, MA). This setup allows the collection of growth kinetic data at A 570 (absorbance at 570 nm) to examine growth inhibition in real-time (BioTek Instruments, Winooski, VT). […] The assays are typically repeated a second time. If the MIC differs from the first assay, a third experimental trial is performed to confirm the MIC.

[2] = tested on: Staphylococcus hemolyticus 730; assay: microbe, parasite or virus in culture; format: cell-based; details: for MIC after 1-Hr AB incubation / MIC after 1-Hr NE digestion / MIC after 4-Hr AB incubation / MIC after 4-Hr NE digestion: pH 8; for MIC: then MIC vs Staphylococcus hemolyticus 730
Protocol: One motivation in designing linear or cyclic AMPs is to prevent proteolytic degradation that can occur with helical peptides. […] Linezolid, a conventional antibiotic was included for comparison.
as §2
The neutrophil elastase was dissolved in 200 mmol/L Tris buffer, pH 8.8, and used at a molar ratio of 1:50 with the peptide in 200 mM ammonium bicarbonate pH 8.0 for 1 or 4 h. The control experiment incubated the peptides alone in 200 mmol/L ammonium bicarbonate for 1 or 4 h. Upon completion of the incubations, the peptides were serially diluted to test MIC. 50% (v/v) MHB2 was added to the plates. MIC was determined as described above.

[3] = tested on: Enterococci (EF500, EF678, EF679, EF787); assay: organism not typed; format: cell-based; details: read-out: MIC G(+) Entcoc
Protocol: as §1, §2

[4] = tested on: Pseudomonas aerginosa (PA231, PA235, PA239, PA249); assay: MIC growth inhibition assay, Pseudomonas aeruginosa clinical isolates; format: cell-based; details: average of four strains, MHB2, 18 h, 37 °C, A570 growth curves
Protocol: as §1, §2

[5] = tested on: Staphylococcus aureus (SA703, SA722, SA729); assay: microbe, parasite or virus in culture; format: cell-based
Protocol: as §1, §2

[6] = tested on: Escherichia coli (EC541, EC543, EC546, EC549); assay: microbe, parasite or virus in culture; format: cell-based
Protocol: as §1, §2

[7] = tested on: Klebsiella pneumoniae (KP106, KP506, KP542, KP550); assay: microbe, parasite or virus in culture; format: cell-based
Protocol: as §1, §2

[8] = tested on: Acinetobacter baumannii (AB78, AB83, AB273, AB275); assay: microbe, parasite or virus in culture; format: cell-based
Protocol: as §1, §2

[9] = tested on: Enterobacter (EA62, EC544, EC547, EA1042); assay: MIC growth inhibition assay, Enterobacter clinical isolates; format: cell-based; details: average of four strains, MHB2, 18 h, 37 °C, A570 growth curves, read-out: MIC G(−) Entbac
Protocol: as §1, §2

[10] = tested on: G(+) bacteria (two species); assay: MIC growth inhibition assay, average over G(+) species; format: cell-based; details: average of the average MICs of two G(+) species, ± spread
Protocol: as §1, §2

[11] = tested on: human red blood cells (RBCs); details: cited from earlier work
Source text: Table 2 Antibacterial Activity and Toxicity of CE-03, LE-53, CE-05 and LE-55 Peptides ^a | column: % toxicity / RBC || The secondary structure of AMPs as they encounter membranes may correlate with their toxicity; it has long been thought that helical peptides are more toxic to eukaryotic cells than nonhelical peptides. Our group has found a positive correlation between helicity and toxicity for WLBU2,[18] the E2-peptides,[28] and SPLUNC1-derived antimicrobial peptides.[34] We have also seen the converse, that nonhelical peptides are nontoxic,[18],[26] supporting the positive correlation between helicity and toxicity. Several literature studies have also found a correlation between α-helicity and toxicity to e ...

[12] = EC541, EC543, EC546, EC549, 18 h
[13] = KP106, KP506, KP542, KP550, 18 h
[14] = average of four strains, MHB2, 18 h, 37 °C, A570 growth curves

Compound: CC(C)[C@@H]1NC(=O)[C@H](Cc2c[nH]c3ccccc23)NC(=O)[C@H](Cc2c[nH]c3ccccc23)NC(=O)[C@H](Cc2c[nH]c3ccccc23)NC(=O)[C@H](Cc2c[nH]c3ccccc23)NC(=O)[C@H](CCCNC(=N)N)NC(=O)[C@H](CCCNC(=N)N)NC(=O)[C@H](CCCNC(=N)N)NC(=O)[C@H](CCCNC(=N)N)NC(=O)[C@H](CCCNC(=N)N)NC(=O)[C@H](CCCNC(=N)N)NC(=O)[C@H](C(C)C)NC1=O [CE-03] (cyclo(RRRRRRWWWWVV))
- MIC G(−) average [1]: 4.6 ± 1.3 µM (≈ 8.65 µg/mL)
- MIC after 1-Hr AB incubation [2]: 1.0 ± 0.0 µM (≈ 1.88 µg/mL)
- MIC after 1-Hr NE digestion [2]: 1.5 ± 0.7 µM (≈ 2.82 µg/mL)
- MIC after 4-Hr AB incubation [2]: 1.0 ± 0 µM (≈ 1.88 µg/mL)
- MIC after 4-Hr NE digestion [2]: 1.0 ± 0 µM (≈ 1.88 µg/mL)
- MIC ([3]; 18 h): 0.9 µM (≈ 1.69 µg/mL)
- MIC [4]: 7.1 µM (≈ 13.3 µg/mL)
- MIC ([5]; SA703, SA722, SA729, 18 h): 2.3 µM (≈ 4.32 µg/mL)
- MIC [6, 12]: 1.5 µM (≈ 2.82 µg/mL)
- MIC [7, 13]: 8.2 µM (≈ 15.4 µg/mL)
- MIC ([8]; AB78, AB83, AB273, AB275, 18 h): 2.2 µM (≈ 4.14 µg/mL)
- MIC [9]: 3.7 µM (≈ 6.96 µg/mL)
- MIC G(+) average [10]: 1.6 ± 0.7 µM (≈ 3.01 µg/mL)

Compound: CC(C)[C@@H]1NC(=O)[C@H](Cc2c[nH]c3ccccc23)NC(=O)[C@H](Cc2c[nH]c3ccccc23)NC(=O)[C@H](Cc2c[nH]c3ccccc23)NC(=O)[C@H](Cc2c[nH]c3ccccc23)NC(=O)[C@H](CCCNC(=N)N)NC(=O)[C@H](CCCNC(=N)N)NC(=O)[C@H](CCCNC(=N)N)NC(=O)[C@H](CCCNC(=N)N)NC(=O)[C@H](CCCNC(=N)N)NC(=O)[C@H](CCCNC(=N)N)NC(=O)[C@H](CCCNC(=N)N)NC(=O)[C@H](CCCNC(=N)N)NC(=O)[C@H](C(C)C)NC(=O)[C@H](C(C)C)NC(=O)[C@H](C(C)C)NC1=O [CE-05] (cyclo(RRRRRRRRWWWWVVVV))
- MIC G(−) average [1]: 3.9 ± 1.1 µM (≈ 9.32 µg/mL)
- MIC after 1-Hr AB incubation [2]: 6.0 ± 2.8 µM (≈ 14.3 µg/mL)
- MIC after 1-Hr NE digestion [2]: 3.0 ± 1.4 µM (≈ 7.17 µg/mL)
- MIC after 4-Hr AB incubation [2]: 4.0 ± 0 µM (≈ 9.56 µg/mL)
- MIC after 4-Hr NE digestion [2]: 3.0 ± 1.4 µM (≈ 7.17 µg/mL)
- MIC [4]: 6.1 µM (≈ 14.6 µg/mL)
- MIC ([5]; SA703, SA722, SA729, 18 h): 1.0 µM (≈ 2.39 µg/mL)
- MIC [6, 12]: 2.5 µM (≈ 5.98 µg/mL)
- MIC [7, 13]: 6.7 µM (≈ 16 µg/mL)
- MIC ([8]; AB78, AB83, AB273, AB275, 18 h): 1.1 µM (≈ 2.63 µg/mL)
- MIC [9]: 3.2 µM (≈ 7.65 µg/mL)

Compound: CC(C)[C@H](NC(=O)[C@@H](NC(=O)[C@H](Cc1c[nH]c2ccccc12)NC(=O)[C@H](Cc1c[nH]c2ccccc12)NC(=O)[C@H](Cc1c[nH]c2ccccc12)NC(=O)[C@H](Cc1c[nH]c2ccccc12)NC(=O)[C@H](CCCNC(=N)N)NC(=O)[C@H](CCCNC(=N)N)NC(=O)[C@H](CCCNC(=N)N)NC(=O)[C@H](CCCNC(=N)N)NC(=O)[C@H](CCCNC(=N)N)NC(=O)[C@@H](N)CCCNC(=N)N)C(C)C)C(=O)O [LE-53] (H-RRRRRRWWWWVV-OH)
- MIC after 1-Hr AB incubation [2]: 2.0 ± 0 µM (≈ 3.8 µg/mL)
- MIC after 1-Hr NE digestion [2]: 2.0 ± 0 µM (≈ 3.8 µg/mL)
- MIC after 4-Hr AB incubation [2]: 3.0 ± 1.4 µM (≈ 5.69 µg/mL)
- MIC after 4-Hr NE digestion [2]: 1.5 ± 0.7 µM (≈ 2.85 µg/mL)
- toxicity (in words) [11]: nontoxic

Compound: CC(C)[C@H](NC(=O)[C@@H](NC(=O)[C@@H](NC(=O)[C@@H](NC(=O)[C@H](Cc1c[nH]c2ccccc12)NC(=O)[C@H](Cc1c[nH]c2ccccc12)NC(=O)[C@H](Cc1c[nH]c2ccccc12)NC(=O)[C@H](Cc1c[nH]c2ccccc12)NC(=O)[C@H](CCCNC(=N)N)NC(=O)[C@H](CCCNC(=N)N)NC(=O)[C@H](CCCNC(=N)N)NC(=O)[C@H](CCCNC(=N)N)NC(=O)[C@H](CCCNC(=N)N)NC(=O)[C@H](CCCNC(=N)N)NC(=O)[C@H](CCCNC(=N)N)NC(=O)[C@@H](N)CCCNC(=N)N)C(C)C)C(C)C)C(C)C)C(=O)O [LE-55] (H-RRRRRRRRWWWWVVVV-OH)
- MIC after 1-Hr AB incubation [2]: 16.0 ± 0 µM (≈ 38.5 µg/mL)
- MIC after 1-Hr NE digestion [2]: 3.0 ± 1.4 µM (≈ 7.23 µg/mL)
- MIC after 4-Hr AB incubation [2]: 6.0 ± 2.8 µM (≈ 14.5 µg/mL)
- MIC after 4-Hr NE digestion [2]: 3.0 ± 1.4 µM (≈ 7.23 µg/mL)
- toxicity (in words) [11]: nontoxic

Compound: CC(=O)NC[C@H]1CN(c2ccc(N3CCOCC3)c(F)c2)C(=O)O1 [linezolid]
- MIC ([2]; control: peptide alone in 200 mmol/L ammonium bicarbonate pH 8.0, 1 h, read-out: MIC after 1-Hr AB incubation): > 16 µM
- MIC ([2]; control: peptide alone in 200 mmol/L ammonium bicarbonate pH 8.0, 4 h, read-out: MIC after 4-Hr AB incubation): > 16 µM
- MIC ([2]; human neutrophil elastase, molar ratio 1:50 with peptide, 200 mM ammonium bicarbonate pH 8.0, 1 h, read-out: MIC after 1-Hr NE digestion): > 16 µM
- MIC ([2]; human neutrophil elastase, molar ratio 1:50 with peptide, 200 mM ammonium bicarbonate pH 8.0, 4 h, read-out: MIC after 4-Hr NE digestion): > 16 µM

Compound: NC[C@H]1O[C@H](O[C@H]2[C@H](O)[C@@H](O[C@H]3O[C@H](CO)[C@@H](O)[C@H](N)[C@H]3O)[C@H](N)C[C@@H]2N)[C@H](N)C[C@@H]1O [tobramycin]
- MIC [1]: 23.7 ± 3.4 µM (≈ 11.1 µg/mL)
- MIC [3, 14]: 25 µM (≈ 11.7 µg/mL)
- MIC ([4]; Pseudomonas): 32 µM (≈ 15 µg/mL)
- MIC ([5]; Staphylococcus aureus, average of strains SA703, SA722, SA729, MHB2, 18 h, 37 °C, A570 growth curves): 13.1 µM (≈ 6.12 µg/mL)
- MIC ([6]; Escherichia coli, average of four strains, MHB2, 18 h, 37 °C, A570 growth curves): 28 µM (≈ 13.1 µg/mL)
- MIC ([7]; Klebsiella pneumoniae, average of four strains, MHB2, 18 h, 37 °C, A570 growth curves): 2.1 µM (≈ 0.982 µg/mL)
- MIC ([8]; Acinetobacter baumannii, average of four strains, MHB2, 18 h, 37 °C, A570 growth curves): 32 µM (≈ 15 µg/mL)
- MIC ([9]; Enterobacter): 24.5 µM (≈ 11.5 µg/mL)
- MIC [10]: 19 ± 1 µM (≈ 8.88 µg/mL)

Compound: colistin
- MIC G(−) average [1]: 5.2 ± 4.3 µM
- MIC [3, 14]: 32.0 µM
- MIC [4]: 8.4 µM
- MIC ([5]; average of strains SA703, SA722, SA729, MHB2, 18 h, 37 °C, A570 growth curves): 64.0 µM
- MIC [6, 14]: 4.3 µM
- MIC [7, 14]: 0.7 µM
- MIC [8, 14]: 0.5 µM
- MIC [9]: 12.1 µM
- MIC G(+) average [10]: 48.0 ± 23.0 µM
